Experimental data published in the NIST ThermoML archive (doi:10.1016/j.jct.2007.07.005).

Assay: xn = mol fraction of the nth substance listed
Conditions: Fluid (supercritical or subcritical phases), vibrating tube

CCCCCO [pentan-1-ol] + O=C=O
Conditions	mass density [kg/m3]
313.11 K, 24020 kPa, x2 = 0.0816	821.33
313.11 K, 25023 kPa, x2 = 0.0816	822.02
313.12 K, 10002 kPa, x2 = 0.8573	809.77
313.12 K, 10012 kPa, x2 = 0.7274	838.41
313.12 K, 11010 kPa, x2 = 0.7274	841.91
313.12 K, 11023 kPa, x2 = 0.8573	818.98
313.12 K, 11998 kPa, x2 = 0.7274	845.15
313.12 K, 12025 kPa, x2 = 0.8573	826.77
313.12 K, 13005 kPa, x2 = 0.8573	833.59
313.12 K, 13032 kPa, x2 = 0.7274	848.39
313.12 K, 14012 kPa, x2 = 0.8573	839.94
313.12 K, 14027 kPa, x2 = 0.7274	851.37
313.12 K, 15004 kPa, x2 = 0.7274	854.2
313.12 K, 15004 kPa, x2 = 0.8573	845.66
313.12 K, 15995 kPa, x2 = 0.8573	851
313.12 K, 16022 kPa, x2 = 0.7274	857
313.12 K, 17007 kPa, x2 = 0.8573	856.08
313.12 K, 17019 kPa, x2 = 0.7274	859.65
313.12 K, 18013 kPa, x2 = 0.8573	860.84
313.12 K, 18018 kPa, x2 = 0.7274	862.21
313.12 K, 19038 kPa, x2 = 0.8573	865.44
313.12 K, 19055 kPa, x2 = 0.7274	864.78
313.12 K, 19966 kPa, x2 = 0.7274	866.98
313.12 K, 20008 kPa, x2 = 0.8573	869.59
313.12 K, 21008 kPa, x2 = 0.8573	873.67
313.12 K, 21014 kPa, x2 = 0.7274	869.44
313.12 K, 22009 kPa, x2 = 0.8573	877.54
313.12 K, 22029 kPa, x2 = 0.7274	871.77
313.12 K, 23015 kPa, x2 = 0.8573	881.34
313.12 K, 23059 kPa, x2 = 0.7274	874.05
313.12 K, 23995 kPa, x2 = 0.8573	884.88
313.14 K, 5019 kPa, x2 = 0.1347	808.85
313.14 K, 6010 kPa, x2 = 0.1347	809.58
313.14 K, 7003 kPa, x2 = 0.1347	810.4
313.14 K, 8042 kPa, x2 = 0.1347	811.24
313.14 K, 9023 kPa, x2 = 0.1347	812.05
313.14 K, 10012 kPa, x2 = 0.1347	812.85
313.14 K, 11019 kPa, x2 = 0.1347	813.62
313.14 K, 12025 kPa, x2 = 0.1347	814.42
313.14 K, 13017 kPa, x2 = 0.1347	815.18
313.14 K, 14011 kPa, x2 = 0.1347	815.96
313.14 K, 15011 kPa, x2 = 0.1347	816.73
313.14 K, 16014 kPa, x2 = 0.1347	817.47
313.14 K, 17041 kPa, x2 = 0.1347	818.22
313.14 K, 18022 kPa, x2 = 0.1347	818.95
313.14 K, 19022 kPa, x2 = 0.1347	819.67
313.14 K, 20012 kPa, x2 = 0.1347	820.39
313.14 K, 21027 kPa, x2 = 0.1347	821.12
313.14 K, 22024 kPa, x2 = 0.1347	821.83
313.14 K, 23011 kPa, x2 = 0.1347	822.55
313.14 K, 24032 kPa, x2 = 0.1347	823.28
313.14 K, 25004 kPa, x2 = 0.1347	824
313.17 K, 8123 kPa, x2 = 0.6054	838.39
313.17 K, 9084 kPa, x2 = 0.6054	840.4
313.17 K, 10125 kPa, x2 = 0.6054	842.5
313.17 K, 11050 kPa, x2 = 0.6054	844.32
313.17 K, 12045 kPa, x2 = 0.6054	846.23
313.17 K, 13094 kPa, x2 = 0.6054	848.18
313.17 K, 14054 kPa, x2 = 0.6054	849.93
313.17 K, 15019 kPa, x2 = 0.6054	851.65
313.17 K, 16045 kPa, x2 = 0.6054	853.41
313.17 K, 17046 kPa, x2 = 0.6054	855.12
313.17 K, 18027 kPa, x2 = 0.6054	856.75
313.17 K, 19070 kPa, x2 = 0.6054	858.44
313.17 K, 20036 kPa, x2 = 0.6054	859.99
313.17 K, 21030 kPa, x2 = 0.6054	861.55
313.17 K, 22042 kPa, x2 = 0.6054	863.12
313.17 K, 23036 kPa, x2 = 0.6054	864.64
313.17 K, 24020 kPa, x2 = 0.6054	866.12
313.17 K, 25040 kPa, x2 = 0.6054	867.64
322.89 K, 520 kPa, x2 = 0	792.06
322.89 K, 1010 kPa, x2 = 0	792.47
322.89 K, 2005 kPa, x2 = 0	793.27
322.89 K, 3007 kPa, x2 = 0	794.07
322.89 K, 4005 kPa, x2 = 0	794.86
322.89 K, 5018 kPa, x2 = 0	795.63
322.89 K, 6001 kPa, x2 = 0	796.42
322.89 K, 7016 kPa, x2 = 0	797.2
322.89 K, 8020 kPa, x2 = 0	797.97
322.89 K, 8997 kPa, x2 = 0	798.71
322.89 K, 10001 kPa, x2 = 0	799.47
322.89 K, 11005 kPa, x2 = 0	800.21
322.89 K, 11996 kPa, x2 = 0	800.95
322.89 K, 13002 kPa, x2 = 0	801.68
322.89 K, 14013 kPa, x2 = 0	802.4
322.89 K, 15005 kPa, x2 = 0	803.11
322.89 K, 16014 kPa, x2 = 0	803.82
322.89 K, 17001 kPa, x2 = 0	804.51
322.89 K, 18016 kPa, x2 = 0	805.21
322.89 K, 19012 kPa, x2 = 0	805.89
322.89 K, 19992 kPa, x2 = 0	806.56
322.89 K, 21036 kPa, x2 = 0	807.26
322.89 K, 22003 kPa, x2 = 0	807.92
322.89 K, 23024 kPa, x2 = 0	808.61
322.89 K, 23994 kPa, x2 = 0	809.26
322.89 K, 25023 kPa, x2 = 0	810
323.05 K, 3011 kPa, x2 = 0.0816	797.79
323.05 K, 4020 kPa, x2 = 0.0816	798.67
323.05 K, 5030 kPa, x2 = 0.0816	799.53
323.05 K, 6018 kPa, x2 = 0.0816	800.37
323.05 K, 7017 kPa, x2 = 0.3624	815.3
323.05 K, 7023 kPa, x2 = 0.0816	801.2
323.05 K, 8013 kPa, x2 = 0.0816	802.02
323.05 K, 8029 kPa, x2 = 0.4651	820.04
323.05 K, 8051 kPa, x2 = 0.3624	816.51
323.05 K, 9009 kPa, x2 = 0.4651	821.63
323.05 K, 9023 kPa, x2 = 0.0816	802.84
323.05 K, 9034 kPa, x2 = 0.3624	817.64
323.05 K, 9991 kPa, x2 = 0.4651	823.23
323.05 K, 10026 kPa, x2 = 0.0816	803.67
323.05 K, 10029 kPa, x2 = 0.3624	818.77
323.05 K, 11006 kPa, x2 = 0.0816	804.46
323.05 K, 11012 kPa, x2 = 0.4651	824.81
323.05 K, 11015 kPa, x2 = 0.8067	800.23
323.05 K, 11022 kPa, x2 = 0.3624	819.83
323.05 K, 11033 kPa, x2 = 0.9757	625.72
323.05 K, 11992 kPa, x2 = 0.0816	805.23
323.05 K, 11993 kPa, x2 = 0.4651	826.28
323.05 K, 11995 kPa, x2 = 0.9757	668.32
323.05 K, 12003 kPa, x2 = 0.3624	820.86
323.05 K, 12032 kPa, x2 = 0.8067	808.05
323.05 K, 13015 kPa, x2 = 0.3624	821.9
323.05 K, 13017 kPa, x2 = 0.9757	699.41
323.05 K, 13024 kPa, x2 = 0.4651	827.83
